Laboratory results reported in paper PMC5218480 (PLoS ONE, 2017).

Tested on: MV-4-11 cells
Experiment: Gene expression microarray analysis (Affymetrix PrimeView) and GSEA
Assay type: cell-based, human
Design: RFU PODN (11730768_x_at) / Fold change /veh PODN (11730768_x_at) / RFU LINC00158 (11744669_a_at) / Fold change /veh LINC00158 (11744669_a_at) / RFU DUSP10 (11751237_a_at) / Fold change /veh DUSP10 (11751237_a_at) / RFU ID3 (11757404_x_at) / Fold change /veh ID3 (11757404_x_at) / RFU PLEKHG5 (11737974_s_at) / Fold change /veh PLEKHG5 (11737974_s_at) / RFU LRRC4B (11730491_at) / Fold change /veh LRRC4B (11730491_at) / RFU GIMAP4 (11747438_a_at) / Fold change /veh GIMAP4 (11747438_a_at) / RFU KRT8 (11758183_x_at) / Fold change /veh KRT8 (11758183_x_at) / RFU CNN1 (11734310_a_at) / Fold change /veh CNN1 (11734310_a_at) / RFU VPS37D (11726825_at) / Fold change /veh VPS37D (11726825_at) / RFU C10orf10 (11716522_x_at) / Fold change /veh C10orf10 (11716522_x_at) / RFU KIR2DL2 /// KIR2DL4 /// KIR2DL5A /// KIR2DL5B /// KIR2DS1 /// KIR2DS2 /// KIR2DS3 /// KIR2DS4 /// KIR3DL3 /// KIR3DL3 /// KIR3DS1 (11738374_at) / Fold change /veh KIR2DL2 /// KIR2DL4 /// KIR2DL5A /// KIR2DL5B /// KIR2DS1 /// KIR2DS2 /// KIR2DS3 /// KIR2DS4 /// KIR3DL3 /// KIR3DL3 /// KIR3DS1 (11738374_at) / RFU C1QL1 (11718748_at) / Fold change /veh C1QL1 (11718748_at) / RFU TMPRSS4 (11747572_a_at) / Fold change /veh TMPRSS4 (11747572_a_at) / RFU HAMP (11756126_x_at) / Fold change /veh HAMP (11756126_x_at) / RFU RNFT2 (11725882_a_at) / Fold change /veh RNFT2 (11725882_a_at) / RFU NR4A2 (11747474_a_at) / Fold change /veh NR4A2 (11747474_a_at) / RFU ABCC12 (11746883_a_at) / Fold change /veh ABCC12 (11746883_a_at) / RFU TMEM136 (11760407_x_at) / Fold change /veh TMEM136 (11760407_x_at) / RFU CLDN22 /// WWC2 (11732394_at) / Fold change /veh CLDN22 /// WWC2 (11732394_at) / RFU HLA-DPB1 (11760878_x_at) / Fold change /veh HLA-DPB1 (11760878_x_at) / RFU SPINT1 (11716480_a_at) / Fold change /veh SPINT1 (11716480_a_at) / RFU GAP43 (11754022_s_at) / Fold change /veh GAP43 (11754022_s_at) / RFU A4GNT (11735810_at) / Fold change /veh A4GNT (11735810_at) / RFU PRB3 (11715151_x_at) / Fold change /veh PRB3 (11715151_x_at) / RFU TUBB4B (11761932_at) / Fold change /veh TUBB4B (11761932_at) / RFU CAPN14 (11732068_a_at) / Fold change /veh CAPN14 (11732068_a_at) / RFU TMCC2 (11721928_a_at) / Fold change /veh TMCC2 (11721928_a_at) / RFU IRGQ (11745062_a_at) / Fold change /veh IRGQ (11745062_a_at) / RFU FAM174B (11720279_a_at) / Fold change /veh FAM174B (11720279_a_at) / RFU TMPRSS4 (11748680_a_at) / Fold change /veh TMPRSS4 (11748680_a_at) / RFU FAM212B (11763350_a_at) / Fold change /veh FAM212B (11763350_a_at) / RFU PLEKHG5 (11743358_a_at) / Fold change /veh PLEKHG5 (11743358_a_at) / RFU ZSCAN30 (11745921_a_at) / Fold change /veh ZSCAN30 (11745921_a_at) / RFU CMKLR1 (11741424_a_at) / Fold change /veh CMKLR1 (11741424_a_at) / RFU LOC101060620 /// MAPK8IP1 (11723275_at) / Fold change /veh LOC101060620 /// MAPK8IP1 (11723275_at) / RFU SPTSSB (11747773_x_at) / Fold change /veh SPTSSB (11747773_x_at) / RFU PRSS12 (11739890_at) / Fold change /veh PRSS12 (11739890_at) / RFU BIN1 (11741810_x_at) / Fold change /veh BIN1 (11741810_x_at) / RFU WNT11 (11732464_a_at) / Fold change /veh WNT11 (11732464_a_at) / RFU C10orf10 (11716521_a_at) / Fold change /veh C10orf10 (11716521_a_at) / RFU C5orf56 (11738089_at) / Fold change /veh C5orf56 (11738089_at) / RFU CYB561 (11721691_x_at) / Fold change /veh CYB561 (11721691_x_at) / RFU ANKRD19P (11752326_a_at) / Fold change /veh ANKRD19P (11752326_a_at) / RFU OR2T12 /// OR2T33 /// OR2T8 (11738714_s_at) / Fold change /veh OR2T12 /// OR2T33 /// OR2T8 (11738714_s_at) / RFU VCAN (11748164_a_at) / Fold change /veh VCAN (11748164_a_at) / RFU JSRP1 (11732532_at) / Fold change /veh JSRP1 (11732532_at) / RFU KRTAP10-11 (11738290_x_at) / Fold change /veh KRTAP10-11 (11738290_x_at) / RFU MYO3A (11730013_a_at) / Fold change /veh MYO3A (11730013_a_at) / RFU EBF3 (11725865_a_at) / Fold change /veh EBF3 (11725865_a_at) / RFU CAMK2N1 (11719241_x_at) / Fold change /veh CAMK2N1 (11719241_x_at) / RFU C5orf56 (11738088_a_at) / Fold change /veh C5orf56 (11738088_a_at) / RFU OLFML3 (11715873_a_at) / Fold change /veh OLFML3 (11715873_a_at) / RFU LOC100653217 /// NTM (11731650_a_at) / Fold change /veh LOC100653217 /// NTM (11731650_a_at) / RFU MAPK11 (11762145_a_at) / Fold change /veh MAPK11 (11762145_a_at) / RFU FIZ1 (11724087_x_at) / Fold change /veh FIZ1 (11724087_x_at) / RFU OASL (11726364_x_at) / Fold change /veh OASL (11726364_x_at) / RFU SOX15 (11748057_x_at) / Fold change /veh SOX15 (11748057_x_at) / RFU CD79A (11719716_a_at) / Fold change /veh CD79A (11719716_a_at) / RFU HIST1H1D (11736915_at) / Fold change /veh HIST1H1D (11736915_at) / RFU CASKIN2 (11723855_a_at) / Fold change /veh CASKIN2 (11723855_a_at) / RFU LOC730098 (11760151_x_at) / Fold change /veh LOC730098 (11760151_x_at) / RFU OR4N2 (11742367_at) / Fold change /veh OR4N2 (11742367_at) / RFU PRRT2 (11749266_a_at) / Fold change /veh PRRT2 (11749266_a_at) / RFU SNX32 (11753110_a_at) / Fold change /veh SNX32 (11753110_a_at) / RFU CDHR5 (11726645_a_at) / Fold change /veh CDHR5 (11726645_a_at) / RFU RCAN1 (11760418_a_at) / Fold change /veh RCAN1 (11760418_a_at) / RFU FAM167A (11723789_a_at) / Fold change /veh FAM167A (11723789_a_at) / RFU FAM26E (11764081_at) / Fold change /veh FAM26E (11764081_at) / RFU ISYNA1 (11749810_s_at) / Fold change /veh ISYNA1 (11749810_s_at) / RFU ACY1 (11761880_at) / Fold change /veh ACY1 (11761880_at) / RFU 11764098_at / Fold change /veh 11764098_at / RFU SAMD14 (11745864_x_at) / Fold change /veh SAMD14 (11745864_x_at) / RFU NPB (11741838_a_at) / Fold change /veh NPB (11741838_a_at) / RFU TMPRSS6 (11731388_a_at) / Fold change /veh TMPRSS6 (11731388_a_at) / RFU KRTAP10-2 (11738614_at) / Fold change /veh KRTAP10-2 (11738614_at) / RFU ARHGAP8 /// PRR5-ARHGAP8 (11727945_x_at) / Fold change /veh ARHGAP8 /// PRR5-ARHGAP8 (11727945_x_at) / RFU KRTAP5-7 /// NADSYN1 (11734609_at) / Fold change /veh KRTAP5-7 /// NADSYN1 (11734609_at) / RFU RASL12 (11751679_a_at) / Fold change /veh RASL12 (11751679_a_at) / RFU CDKN2B (11736163_a_at) / Fold change /veh CDKN2B (11736163_a_at) / RFU PRF1 (11729649_at) / Fold change /veh PRF1 (11729649_at) / RFU, ZNF638 /// ZNF638-IT1 / Fold change vs veh, ZNF638 /// ZNF638-IT1 / RFU, PANK3 / Fold change vs veh, PANK3 / RFU, SH3YL1 / Fold change vs veh, SH3YL1 / RFU, ZEB2 / Fold change vs veh, ZEB2 / RFU, NRIP1 / Fold change vs veh, NRIP1 / RFU, PTTG1IP / Fold change vs veh, PTTG1IP / RFU, CAPN2 / Fold change vs veh, CAPN2 / RFU, MED14 / Fold change vs veh, MED14 / RFU, SNORA58 / Fold change vs veh, SNORA58 / RFU, C1orf63 / Fold change vs veh, C1orf63 / RFU, LRRFIP1 / Fold change vs veh, LRRFIP1 / RFU, NDUFAF7 / Fold change vs veh, NDUFAF7 / RFU, SLC12A2 / Fold change vs veh, SLC12A2 / RFU, IBTK / Fold change vs veh, IBTK / RFU, ESF1 / Fold change vs veh, ESF1 / Fold change vs veh, TMEM50B / RFU, TAOK1 / Fold change vs veh, TAOK1 / RFU, ACBD3 / Fold change vs veh, ACBD3 / RFU, TMA16 / Fold change vs veh, TMA16 / RFU, RWDD3 / Fold change vs veh, RWDD3 / RFU, BCAT1 / Fold change vs veh, BCAT1 / RFU, EDEM3 / Fold change vs veh, EDEM3 / RFU, TMEM33 / Fold change vs veh, TMEM33 / RFU, WDR75 / Fold change vs veh, WDR75 / RFU, AHCTF1 / Fold change vs veh, AHCTF1 / RFU, TFRC / Fold change vs veh, TFRC / RFU, ZDHHC17 / Fold change vs veh, ZDHHC17 / RFU, NOM1 / Fold change vs veh, NOM1 / RFU, ARL8B / Fold change vs veh, ARL8B / RFU, ZBTB11 / Fold change vs veh, ZBTB11 / RFU, TAMM41 / Fold change vs veh, TAMM41 / RFU, KIAA1704 /// LOC100996395 / Fold change vs veh, KIAA1704 /// LOC100996395 / RFU, ING1 / Fold change vs veh, ING1 / RFU, TRMT61B / Fold change vs veh, TRMT61B / RFU, FUBP3 / Fold change vs veh, FUBP3 / RFU, TP53 / Fold change vs veh, TP53 / RFU, TNKS2 / Fold change vs veh, TNKS2 / RFU, ZFP14 / Fold change vs veh, ZFP14 / RFU, ACTR2 / Fold change vs veh, ACTR2 / RFU, PPP3R1 / Fold change vs veh, PPP3R1 / RFU, PIK3R1 / Fold change vs veh, PIK3R1 / RFU, HNRNPA1 / Fold change vs veh, HNRNPA1 / RFU, RNF170 / Fold change vs veh, RNF170 / RFU, ZNF28 / Fold change vs veh, ZNF28 / RFU, RNGTT / Fold change vs veh, RNGTT / RFU, OGT / Fold change vs veh, OGT / RFU, BRD1 / Fold change vs veh, BRD1 / RFU, MARS / Fold change vs veh, MARS / RFU, ZNF655 / Fold change vs veh, ZNF655 / RFU, FAHD1 / Fold change vs veh, FAHD1 / RFU, BDP1 / Fold change vs veh, BDP1 / RFU, LRRCC1 / Fold change vs veh, LRRCC1 / RFU, ARID1A / Fold change vs veh, ARID1A / RFU, ZNF146 / Fold change vs veh, ZNF146 / RFU, ZNF330 / Fold change vs veh, ZNF330 / RFU, GPN3 / Fold change vs veh, GPN3 / RFU, C9orf123 / Fold change vs veh, C9orf123 / RFU, N4BP2L2 / Fold change vs veh, N4BP2L2 / RFU, ARFIP1 / Fold change vs veh, ARFIP1 / RFU, FAM179B / Fold change vs veh, FAM179B / RFU, BCL10 / Fold change vs veh, BCL10 / RFU, UHRF1BP1L / Fold change vs veh, UHRF1BP1L / RFU, BET1 / Fold change vs veh, BET1 / RFU, CNOT2 / Fold change vs veh, CNOT2 / RFU, ZNF268 / Fold change vs veh, ZNF268 / Fold change vs veh, ZNF507 / RFU, DGCR2 / Fold change vs veh, DGCR2 / RFU, WDSUB1 / Fold change vs veh, WDSUB1 / Fold change vs veh, HSP90B1 /// MIR3652 / RFU, ADSS / Fold change vs veh, ADSS / RFU, GK / Fold change vs veh, GK / RFU, ZNF148 / Fold change vs veh, ZNF148 / RFU, TAF9 / Fold change vs veh, TAF9 / RFU, SLC1A5 / Fold change vs veh, SLC1A5 / RFU, SLMO2 / Fold change vs veh, SLMO2 / RFU, ABCC4 / Fold change vs veh, ABCC4 / RFU, LOC101060439 /// RAP1B / Fold change vs veh, LOC101060439 /// RAP1B / RFU, RFX7 / Fold change vs veh, RFX7 / RFU, GTPBP10 / Fold change vs veh, GTPBP10 / RFU, CNEP1R1 / Fold change vs veh, CNEP1R1 / RFU, BIVM-ERCC5 /// ERCC5 / Fold change vs veh, BIVM-ERCC5 /// ERCC5 / RFU, ILF3 / Fold change vs veh, ILF3 / RFU 11762660_at / Fold change /veh 11762660_at / RFU VCAN (11757783_s_at) / Fold change /veh VCAN (11757783_s_at) / RFU DDX43 (11728927_at) / Fold change /veh DDX43 (11728927_at) / RFU KRT8 (11758188_x_at) / Fold change /veh KRT8 (11758188_x_at) / RFU NKD1 (11759106_at) / Fold change /veh NKD1 (11759106_at) / RFU SRD5A1 (11742802_a_at) / Fold change /veh SRD5A1 (11742802_a_at) / RFU TPSAB1 /// TPSB2 (11721975_s_at) / Fold change /veh TPSAB1 /// TPSB2 (11721975_s_at) / RFU GSTM3 (11746129_a_at) / Fold change /veh GSTM3 (11746129_a_at) / RFU IL23R (11737362_x_at) / Fold change /veh IL23R (11737362_x_at) / RFU TMEM51 (11727254_a_at) / Fold change /veh TMEM51 (11727254_a_at) / RFU PIWIL2 (11732686_x_at) / Fold change /veh PIWIL2 (11732686_x_at) / RFU ORM1 (11744905_x_at) / Fold change /veh ORM1 (11744905_x_at) / RFU CCDC152 (11743942_at) / Fold change /veh CCDC152 (11743942_at) / RFU ECM1 (11717891_a_at) / Fold change /veh ECM1 (11717891_a_at) / RFU IL23R (11748794_a_at) / Fold change /veh IL23R (11748794_a_at) / RFU TNFAIP8L3 (11732012_x_at) / Fold change /veh TNFAIP8L3 (11732012_x_at) / RFU MBOAT4 (11741988_at) / Fold change /veh MBOAT4 (11741988_at) / RFU 11764193_at / Fold change /veh 11764193_at / RFU TMEM53 (11763286_at) / Fold change /veh TMEM53 (11763286_at) / RFU MAGEB2 (11727129_at) / Fold change /veh MAGEB2 (11727129_at) / RFU TMEM200A (11744735_a_at) / Fold change /veh TMEM200A (11744735_a_at) / RFU CCDC152 (11751479_a_at) / Fold change /veh CCDC152 (11751479_a_at) / RFU FAM211A (11726209_a_at) / Fold change /veh FAM211A (11726209_a_at) / RFU RGS16 (11746705_a_at) / Fold change /veh RGS16 (11746705_a_at) / RFU VCAN (11755009_s_at) / Fold change /veh VCAN (11755009_s_at) / RFU RHOB (11743442_s_at) / Fold change /veh RHOB (11743442_s_at) / RFU RGS16 (11720943_a_at) / Fold change /veh RGS16 (11720943_a_at) / RFU RGS16 (11720944_at) / Fold change /veh RGS16 (11720944_at) / RFU, VPS4B / Fold change vs veh, VPS4B / RFU, CREB1 / Fold change vs veh, CREB1 / RFU, DNAJC13 / Fold change vs veh, DNAJC13 / RFU, GNAQ / Fold change vs veh, GNAQ / RFU, CDK5R1 / Fold change vs veh, CDK5R1 / RFU, ZRANB3 / Fold change vs veh, ZRANB3 / RFU, CUL4A / Fold change vs veh, CUL4A / RFU, CCNY / Fold change vs veh, CCNY / RFU, UFL1 / Fold change vs veh, UFL1 / RFU, COG3 / Fold change vs veh, COG3 / RFU, DIAPH2 / Fold change vs veh, DIAPH2 / RFU, SKA2 / Fold change vs veh, SKA2 / RFU, AFF3 / Fold change vs veh, AFF3 / RFU, LMF1 / Fold change vs veh, LMF1 / RFU, IPO11 / Fold change vs veh, IPO11 / RFU, DFFB / Fold change vs veh, DFFB / RFU, FOXP1 / Fold change vs veh, FOXP1 / RFU, CARD8 / Fold change vs veh, CARD8 / RFU, STRN3 / Fold change vs veh, STRN3 / RFU, ADK / Fold change vs veh, ADK / RFU, RASSF2 / Fold change vs veh, RASSF2 / RFU, WIPF1 / Fold change vs veh, WIPF1 / RFU, LARP1B / Fold change vs veh, LARP1B / RFU, RASA1 / Fold change vs veh, RASA1 / RFU, RB1 / Fold change vs veh, RB1 / RFU, PPFIA1 / Fold change vs veh, PPFIA1 / RFU, MAT2A / Fold change vs veh, MAT2A / RFU, CCT5 / Fold change vs veh, CCT5 / RFU, WDR92 / Fold change vs veh, WDR92 / RFU, CUX1 / Fold change vs veh, CUX1 / RFU, TTC7A / Fold change vs veh, TTC7A / RFU, TMEM135 / Fold change vs veh, TMEM135 / RFU, DEPTOR / Fold change vs veh, DEPTOR / RFU, CPM / Fold change vs veh, CPM / RFU, DNAJB6 / Fold change vs veh, DNAJB6 / RFU, CACNA2D3 / Fold change vs veh, CACNA2D3 / RFU, DTX4 / Fold change vs veh, DTX4 / RFU, TFCP2 / Fold change vs veh, TFCP2 / RFU, GMCL1 /// GMCL1P1 / Fold change vs veh, GMCL1 /// GMCL1P1 / RFU, AEBP2 / Fold change vs veh, AEBP2 / RFU, SNHG1 /// SNORD22 /// SNORD25 /// SNORD26 /// SNORD27 /// SNORD28 /// SNORD29 /// SNORD31 / Fold change vs veh, SNHG1 /// SNORD22 /// SNORD25 /// SNORD26 /// SNORD27 /// SNORD28 /// SNORD29 /// SNORD31 / Fold change (Aza/veh), C12orf56 (ProbeSet 11735607_a_at) / Fold change (ACY-1035/veh), C12orf56 (ProbeSet 11735607_a_at) / Fold change (Aza/veh), FGFR1OP (ProbeSet 11751329_s_at) / Fold change (ACY-1035/veh), FGFR1OP (ProbeSet 11751329_s_at) / Fold change (Aza/veh), VPS36 (ProbeSet 11739960_a_at) / Fold change (ACY-1035/veh), VPS36 (ProbeSet 11739960_a_at) / RFU SYPL1 (11715823_x_at) / Fold change /veh SYPL1 (11715823_x_at) / RFU IGFBP7 (11715501_s_at) / Fold change /veh IGFBP7 (11715501_s_at) / RFU REEP3 (11722064_at) / Fold change /veh REEP3 (11722064_at) / RFU IGLL1 (11728026_x_at) / Fold change /veh IGLL1 (11728026_x_at): dose or concentration left out as unconfirmed
Settings: MV-4-11 cells, 48 hours

`Nc1ccc(-c2cccs2)cc1NC(=O)c1ccc2c(c1)cc(C1CC1)n2CCN1CCOCC1` [ACY-1035] was tested. Which “Fold change /veh VCAN (11757783_s_at)” value did it give?
Its value is 1.01.
